25 compounds from ChEMBL document CHEMBL4823245, “Development of an In Silico Prediction Model for P-glycoprotein Efflux Potential in Brain Capillary Endothelial Cells toward the Prediction of Brain Penetration” (J Med Chem, 2021) can be followed below.

Series [1] in a line: Unbound plasma concentration in P-gp knock out Sprague-Dawley rat at 5 mg/ml/kg, po measured upto 4 hrs by LC-MS analysis.
Series [2] in a line: Ratio of drug concentration in brain to plasma of P-gp knock out Sprague-Dawley rat.
Series [3] in a line: Unbound brain-to-plasma concentration ratio in P-gp knock out Sprague-Dawley rat.
The nature of series [4]: Unbound brain concentration in P-gp knock out Sprague-Dawley rat at 5 mg/ml/kg, po measured upto 4 hrs by LC-MS analysis. As to conditions: in vivo.

The fraction unbound is the share of the substance not bound to proteins or other matrix. A lower fraction unbound goes with little free substance. Broadly, the Kp is tissue or fluid exposure divided by exposure in the circulation. The compound `CC(C)(C)NC(=O)[C@@H]1C[C@@H]2CCCC[C@@H]2CN1C[C@@H](O)[C@H](Cc1ccccc1)NC(=O)[C@H](CC(N)=O)NC(=O)c1ccc2ccccc2n1` came in with a fraction unbound at 4 h in series [1] (plasma) of 0.005. For the same compound, in series [2] (brain), the Kp came to 0.067. For the same compound, the Kp uu in series [3] (brain) was found to be 0.014. The compound also returned a Fu in series [4] of 0.006.

Regarding `CC(C)CN(C[C@@H](O)[C@H](Cc1ccccc1)NC(=O)O[C@H]1CCOC1)S(=O)(=O)c1ccc(N)cc1`, the fraction unbound at 4 h in series [1] (plasma) was 0.129.

As for `O=C(O)CCCN1CCC(OC(c2ccc(Cl)cc2)c2ccccn2)CC1` (configuration not stated), the fraction unbound at 4 h in series [1] (plasma) worked out at 0.642. Also, the Kp in series [2] (brain/plasma) was 0.031. Further, the Kp uu in series [3] (brain/plasma) turned out to be 0.018.

`Cc1c(O)cccc1C(=O)N[C@@H](CSc1ccccc1)[C@H](O)CN1C[C@H]2CCCC[C@H]2C[C@H]1C(=O)NC(C)(C)C` gave a fraction unbound at 4 h in series [1] (plasma) of 0.003. The Kp uu in series [3] (brain/plasma) amounted to 0.007.

The compound `CN1CC[C@H](c2c(O)cc(O)c3c(=O)cc(-c4ccccc4Cl)oc23)[C@H](O)C1` [ALVOCIDIB] returned a fraction unbound at 4 h in series [1] (plasma) of 0.051. In addition, in series [2] (brain/plasma), the partition ratio (Kp) is 0.451. The Kp uu in series [3] (brain/plasma) was determined as 0.234.

In the case of `COc1ccc(CCN2CCC(Nc3nc4ccccc4n3Cc3ccc(F)cc3)CC2)cc1` [ASTEMIZOLE], the fraction unbound at 4 h in series [1] (in vivo) turned out to be 0.011. For the same compound, the Kp in series [2] (brain) worked out at 38.9. Further, in series [3] (brain), the Kp uu stood at 0.577. Besides, the Fu in series [4] is given as 0.004.

Consider `CC[C@H]1OC(=O)[C@H](C)[C@@H](O[C@H]2C[C@@](C)(OC)[C@@H](O)[C@H](C)O2)[C@H](C)[C@@H](O[C@@H]2O[C@H](C)C[C@H](N(C)C)[C@H]2O)[C@](C)(OC)C[C@@H](C)C(=O)[C@H](C)[C@@H](O)[C@]1(C)O` [CLARITHROMYCIN], for which the fraction unbound at 4 h in series [1] (in vivo) was found to be 0.377. In addition, in series [2] (brain), the Kp was 1.96. Besides, in series [3] (brain), the Kp uu is 0.014. Besides, the Fu in series [4] is on record as 0.113.

`C[C@@H](Oc1cc(-c2cnn(C3CCNCC3)c2)cnc1N)c1c(Cl)ccc(F)c1Cl` [CRIZOTINIB] registered a fraction unbound at 4 h in series [1] (plasma) of 0.03. Further, the partition ratio (Kp) in series [2] (brain/plasma) came out at 5.55. In addition, the Kp uu in series [3] (brain/plasma) is 0.017.

The compound `Cc1nc(Nc2ncc(C(=O)Nc3c(C)cccc3Cl)s2)cc(N2CCN(CCO)CC2)n1.O` [DASATINIB] showed a fraction unbound at 4 h in series [1] (plasma) of 0.026. For the same compound, the Kp in series [2] (brain) worked out at 0.061. In addition, the Kp uu in series [3] (brain) worked out at 0.016. In addition, the Fu in series [4] came out at 0.013.

In series [1] (plasma), `Clc1ccc2c(c1)CCc1cccnc1C2=C1CCNCC1` [DESLORATADINE] returned a fraction unbound at 4 h of 0.19. Besides, in series [3] (brain/plasma), the Kp uu was found to be 0.061.

The compound `C[C@@H]1C[C@H]2[C@@H]3CCC4=CC(=O)C=C[C@]4(C)[C@@]3(F)[C@@H](O)C[C@]2(C)[C@@]1(O)C(=O)CO` [DEXAMETHASONE] displayed a fraction unbound at 4 h in series [1] (plasma) of 0.159.

The compound `C[C@H]1O[C@@H](O[C@H]2[C@@H](O)C[C@H](O[C@H]3[C@@H](O)C[C@H](O[C@H]4CC[C@@]5(C)[C@H](CC[C@@H]6[C@@H]5C[C@@H](O)[C@]5(C)[C@@H](C7=CC(=O)OC7)CC[C@]65O)C4)O[C@@H]3C)O[C@@H]2C)C[C@H](O)[C@@H]1O` [DIGOXIN] gave a fraction unbound at 4 h in series [1] (in vivo) of 0.583.

As for `CC(C)N(CCC(C(N)=O)(c1ccccc1)c1ccccn1)C(C)C` (configuration not stated) [DISOPYRAMIDE], the unbound share (fraction unbound) at 4 h in series [1] (in vivo) was found to be 0.669. In addition, the Kp in series [2] (brain) came to 1.02. For the same compound, the Kp uu in series [3] (brain) came to 0.036. Also, in series [4], the Fu is reported as 0.491.

`O=c1[nH]c2ccccc2n1CCCN1CCC(n2c(=O)[nH]c3cc(Cl)ccc32)CC1` [DOMPERIDONE] had a fraction unbound at 4 h in series [1] (in vivo) of 0.029. In series [4], this compound showed a Fu of 0.017.

Turning to `COc1cc([C@@H]2c3cc4c(cc3[C@@H](O[C@@H]3O[C@@H]5CO[C@@H](C)O[C@H]5[C@H](O)[C@H]3O)[C@H]3COC(=O)[C@H]23)OCO4)cc(OC)c1O` [ETOPOSIDE], the fraction unbound at 4 h in series [1] (in vivo) worked out at 0.357. In series [2] (brain), the Kp is 0.037. For the same compound, in series [3] (brain), the Kp uu worked out at 0.024. Moreover, the Fu in series [4] was 0.539.

For `Cc1ccc(NC(=O)c2ccc(CN3CCN(C)CC3)cc2)cc1Nc1nccc(-c2cccnc2)n1` [IMATINIB], the Kp uu in series [3] (brain/plasma) was 0.041.

`COc1ccc2c(c1)c(CC(=O)O)c(C)n2C(=O)c1ccc(Cl)cc1` [INDOMETHACIN] gave a fraction unbound at 4 h in series [1] (plasma) of 0.008. Further, in series [2] (brain), the Kp was found to be 0.009. Also, the Kp uu in series [3] (brain) was 0.074. In series [4], this compound registered a Fu of 0.048.

The compound `CCN(CC)CCNC(=O)c1cc(Cl)c(N)cc1OC` [METOCLOPRAMIDE] showed a free fraction (fraction unbound) at 4 h in series [1] (in vivo) of 0.677. Also, the Kp in series [2] (brain) worked out at 5.05. The Kp uu in series [3] (brain) turned out to be 2.45. The compound further yielded a Fu in series [4] of 0.817.

For the compound `Cc1nc2n(c(=O)c1CCN1CCC(c3noc4cc(F)ccc34)CC1)CCCC2O` (configuration not stated) [PALIPERIDONE], the fraction unbound at 4 h in series [1] (plasma) worked out at 0.047. In addition, in series [2] (brain/plasma), the Kp is 0.867. In series [3] (brain/plasma), the Kp uu came to 0.443.

Compound `COc1cc2nc(N3CCN(C(=O)c4ccco4)CC3)nc(N)c2cc1OC` [PRAZOSIN] had a fraction unbound at 4 h in series [1] (plasma) of 0.264. Besides, the Kp in series [2] (brain/plasma) was found to be 0.247. Besides, in series [3] (brain/plasma), the Kp uu is 0.164.

Turning to `C=C[C@H]1C[N@@]2CC[C@H]1C[C@@H]2[C@@H](O)c1ccnc2ccc(OC)cc12` [QUINIDINE], in series [3] (brain), the Kp uu worked out at 0.065.

For `Cc1nc2n(c(=O)c1CCN1CCC(c3noc4cc(F)ccc34)CC1)CCCC2` [RISPERIDONE], the Fu is 0.033 in series [1] (in vivo, 4 h) and 0.12 in series [4]. Further, the Kp in series [2] (brain) is 1.56. For the same compound, the Kp uu in series [3] (brain/plasma) is 1.38.

Compound `CC[C@H](CO)Nc1nc(NCc2ccccc2)c2ncn(C(C)C)c2n1` [SELICICLIB] came in with an unbound share (fraction unbound) at 4 h in series [1] (plasma) of 0.048. The Kp in series [2] (brain/plasma) amounted to 1.26. In series [3] (brain/plasma), the Kp uu was 0.205.

Turning to `CCN(CC)CCNC(=O)c1c(C)[nH]c(/C=C2\C(=O)Nc3ccc(F)cc32)c1C` [SUNITINIB], the fraction unbound at 4 h in series [1] (plasma) is 0.007. Also, the Kp in series [2] (brain/plasma) came out at 0.481. In series [3] (brain/plasma), the Kp uu was 0.414.

In series [1] (in vivo), `CN(C)CCc1c[nH]c2ccc(C[C@H]3COC(=O)N3)cc12` [ZOLMITRIPTAN] returned a fraction unbound at 4 h of 0.942. Besides, the Kp in series [2] (brain) came out at 0.043. Besides, the Kp uu in series [3] (brain) was found to be 0.035. The same compound came in with a Fu in series [4] of 1.
